# Source: patent publication US10905123B2, “Herbicidal compounds” (Syngenta Participations AG, priority 2015, dated 2021)
# Key:
# Type in all cases: in vivo
# Settings in all cases: Rate 1000 g/ha; evaluated after 13 days
# [1] = tested on: Abutilon threophrasti (ABUTH); assay: B1a pre-emergence herbicidal activity
# Procedure: (§1) Seeds of a variety of test species were sown in standard soil in pots: Amaranthus retroflexus (AMARE), Setaria faberi (SETFA), Zea mays (ZEAMX), Abutilon threophrasti (ABUTH), Echinochloa crus-galli (ECHCG), Lolium perenne (LOLPE). After cultivation for one day (pre-emergence) under controlled conditions in a glasshouse (at 24/16° C., day/night; 14 hours light; 65% humidity), the plants were sprayed with an aqueous spray solution derived from the formulation of the technical active ingredient in acetone/water (50:50) solution containing 0.5% Tween 20 (polyoxyethelyene sorbitan monolaurate, CAS RN 9005-64-5). The test plants were then grown in a glasshouse under controlled conditions (at 24/16° C., day/night; 14 hours light; 65% humidity) and watered twice daily. After 13 days, the test was evaluated (5=total damage to plant; 0=no damage to plant). Results are shown below in Table 4
# [2] = tested on: Amaranthus retroflexus (AMARE); assay: B1a pre-emergence herbicidal activity
# Procedure: as §1
# [3] = tested on: Echinochloa crus-galli (ECHCG); assay: B1a pre-emergence herbicidal activity
# Procedure: as §1
# Lolium perenne (LOLPE) [4] = assay: B1a pre-emergence herbicidal activity
# Procedure: as §1
# Setaria faberi (SETFA) [5] = assay: B1a pre-emergence herbicidal activity
# Procedure: as §1
# Zea mays (ZEAMX) [6] = assay: B1a pre-emergence herbicidal activity
# Procedure: as §1
# [7] = tested on: Abutilon threophrasti (ABUTH); assay: B2a post-emergence herbicidal activity
# Procedure: (§2) Seeds of a variety of test species were sown in standard soil in pots: Amaranthus retroflexus (AMARE), Setaria faberi (SETFA), Zea mays (ZEAMX), Abutilon threophrasti (ABUTH), Echinochloa crus-galli (ECHCG), Lolium perenne (LOLPE). After 8 days cultivation (post-emergence) under controlled conditions in a glasshouse (at 24/16° C., day/night; 14 hours light; 65% humidity), the plants were sprayed with an aqueous spray solution derived from the formulation of the technical active ingredient in acetone/I water (50:50) solution containing 0.5% Tween 20 (polyoxyethelyene sorbitan monolaurate, CAS RN 9005-64-5). The test plants were then grown in a glasshouse under controlled conditions (at 24/16° C., day/night; 14 hours light; 65% humidity) and watered twice daily. After 13 days, the test was evaluated (5=total damage to plant; 0=no damage to plant).
# [8] = tested on: Amaranthus retroflexus (AMARE); assay: B2a post-emergence herbicidal activity
# Procedure: as §2
# [9] = tested on: Echinochloa crus-galli (ECHCG); assay: B2a post-emergence herbicidal activity
# Procedure: as §2
# Lolium perenne (LOLPE) [10] = assay: B2a post-emergence herbicidal activity
# Procedure: as §2
# Setaria faberi (SETFA) [11] = assay: B2a post-emergence herbicidal activity
# Procedure: as §2
# Zea mays (ZEAMX) [12] = assay: B2a post-emergence herbicidal activity
# Procedure: as §2
smiles,measurement,setting,value
CCOC(=O)C(=O)N(C)c1cn(-c2cncnc2)nc1C(F)(F)F [Compound A43],Control of ABUTH after pre-emergence application (damage score 0-5),[1],0
same,Control of AMARE after pre-emergence application (damage score 0-5),[2],0
same,Control of ECHCG after pre-emergence application (damage score 0-5),[3],0
same,Control of LOLPE after pre-emergence application (damage score 0-5),Lolium perenne (LOLPE) [4],0
same,Control of SETFA after pre-emergence application (damage score 0-5),Setaria faberi (SETFA) [5],0
same,Control of ZEAMX after pre-emergence application (damage score 0-5),Zea mays (ZEAMX) [6],0
same,Control of ABUTH after post-emergence application (damage score 0-5),[7],2
same,Control of AMARE after post-emergence application (damage score 0-5),[8],1
same,Control of ECHCG after post-emergence application (damage score 0-5),[9],1
same,Control of LOLPE after post-emergence application (damage score 0-5),Lolium perenne (LOLPE) [10],0
same,Control of SETFA after post-emergence application (damage score 0-5),Setaria faberi (SETFA) [11],1
same,Control of ZEAMX after post-emergence application (damage score 0-5),Zea mays (ZEAMX) [12],2
"CN(C(=O)OC(C)(C)C)c1cn(-c2cccnc2)nc1Cl [Compound A60, tert-butyl N-[3-chloro-1-(3-pyridyl)pyrazol-4-yl]-N-methyl-carbamate]",Control of ABUTH after pre-emergence application (damage score 0-5),[1],0
same,Control of AMARE after pre-emergence application (damage score 0-5),[2],1
same,Control of ECHCG after pre-emergence application (damage score 0-5),[3],2
same,Control of LOLPE after pre-emergence application (damage score 0-5),Lolium perenne (LOLPE) [4],0
same,Control of SETFA after pre-emergence application (damage score 0-5),Setaria faberi (SETFA) [5],4
same,Control of ZEAMX after pre-emergence application (damage score 0-5),Zea mays (ZEAMX) [6],2
same,Control of ABUTH after post-emergence application (damage score 0-5),[7],2
same,Control of AMARE after post-emergence application (damage score 0-5),[8],3
same,Control of ECHCG after post-emergence application (damage score 0-5),[9],4
same,Control of LOLPE after post-emergence application (damage score 0-5),Lolium perenne (LOLPE) [10],2
same,Control of SETFA after post-emergence application (damage score 0-5),Setaria faberi (SETFA) [11],4
same,Control of ZEAMX after post-emergence application (damage score 0-5),Zea mays (ZEAMX) [12],3
CC(C)(C)OC(=O)Nc1cn(-c2cccnc2)nc1Cl [Compound A57],Control of ABUTH after pre-emergence application (damage score 0-5),[1],0
same,Control of AMARE after pre-emergence application (damage score 0-5),[2],0
same,Control of ECHCG after pre-emergence application (damage score 0-5),[3],0
same,Control of LOLPE after pre-emergence application (damage score 0-5),Lolium perenne (LOLPE) [4],0
same,Control of SETFA after pre-emergence application (damage score 0-5),Setaria faberi (SETFA) [5],0
same,Control of ZEAMX after pre-emergence application (damage score 0-5),Zea mays (ZEAMX) [6],1
same,Control of ABUTH after post-emergence application (damage score 0-5),[7],1
same,Control of AMARE after post-emergence application (damage score 0-5),[8],1
same,Control of ECHCG after post-emergence application (damage score 0-5),[9],2
same,Control of LOLPE after post-emergence application (damage score 0-5),Lolium perenne (LOLPE) [10],1
same,Control of SETFA after post-emergence application (damage score 0-5),Setaria faberi (SETFA) [11],3
same,Control of ZEAMX after post-emergence application (damage score 0-5),Zea mays (ZEAMX) [12],2
Cc1nn(-c2cncnc2)cc1N(C)C(=O)Nc1c(C)noc1C [Compound A45],Control of ABUTH after pre-emergence application (damage score 0-5),[1],0
same,Control of AMARE after pre-emergence application (damage score 0-5),[2],0
same,Control of ECHCG after pre-emergence application (damage score 0-5),[3],0
same,Control of LOLPE after pre-emergence application (damage score 0-5),Lolium perenne (LOLPE) [4],0
same,Control of SETFA after pre-emergence application (damage score 0-5),Setaria faberi (SETFA) [5],0
same,Control of ZEAMX after pre-emergence application (damage score 0-5),Zea mays (ZEAMX) [6],0
same,Control of ABUTH after post-emergence application (damage score 0-5),[7],0
same,Control of AMARE after post-emergence application (damage score 0-5),[8],0
same,Control of ECHCG after post-emergence application (damage score 0-5),[9],0
same,Control of LOLPE after post-emergence application (damage score 0-5),Lolium perenne (LOLPE) [10],0
same,Control of SETFA after post-emergence application (damage score 0-5),Setaria faberi (SETFA) [11],0
same,Control of ZEAMX after post-emergence application (damage score 0-5),Zea mays (ZEAMX) [12],0
"CC(C)OC(=O)N(C)c1cc(-c2cncnc2)nn1C(F)F [Compound A59, isopropyl N-[2-(difluoromethyl)-5-pyrimidin-5-yl-pyrazol-3-yl]-N-methyl-carbamate]",Control of ABUTH after pre-emergence application (damage score 0-5),[1],0
same,Control of AMARE after pre-emergence application (damage score 0-5),[2],0
same,Control of ECHCG after pre-emergence application (damage score 0-5),[3],2
same,Control of LOLPE after pre-emergence application (damage score 0-5),Lolium perenne (LOLPE) [4],0
same,Control of SETFA after pre-emergence application (damage score 0-5),Setaria faberi (SETFA) [5],3
same,Control of ZEAMX after pre-emergence application (damage score 0-5),Zea mays (ZEAMX) [6],2
same,Control of ABUTH after post-emergence application (damage score 0-5),[7],0
same,Control of AMARE after post-emergence application (damage score 0-5),[8],0
same,Control of ECHCG after post-emergence application (damage score 0-5),[9],1
same,Control of LOLPE after post-emergence application (damage score 0-5),Lolium perenne (LOLPE) [10],0
same,Control of SETFA after post-emergence application (damage score 0-5),Setaria faberi (SETFA) [11],3
same,Control of ZEAMX after post-emergence application (damage score 0-5),Zea mays (ZEAMX) [12],2
"CC(C)OC(=O)Nc1cc(-c2cncnc2)nn1C(F)F [Compound A58, isopropyl N-[2-(difluoromethyl)-5-pyrimidin-5-yl-pyrazol-3-yl]carbamate]",Control of ABUTH after pre-emergence application (damage score 0-5),[1],0
same,Control of AMARE after pre-emergence application (damage score 0-5),[2],0
same,Control of ECHCG after pre-emergence application (damage score 0-5),[3],1
same,Control of LOLPE after pre-emergence application (damage score 0-5),Lolium perenne (LOLPE) [4],0
same,Control of SETFA after pre-emergence application (damage score 0-5),Setaria faberi (SETFA) [5],2
same,Control of ZEAMX after pre-emergence application (damage score 0-5),Zea mays (ZEAMX) [6],0
same,Control of ABUTH after post-emergence application (damage score 0-5),[7],0
same,Control of AMARE after post-emergence application (damage score 0-5),[8],0
same,Control of ECHCG after post-emergence application (damage score 0-5),[9],1
same,Control of LOLPE after post-emergence application (damage score 0-5),Lolium perenne (LOLPE) [10],1
same,Control of SETFA after post-emergence application (damage score 0-5),Setaria faberi (SETFA) [11],3
same,Control of ZEAMX after post-emergence application (damage score 0-5),Zea mays (ZEAMX) [12],1
